The source of these data is US20040023884A1, “Biologically active peptides from functional domains of bactericidal/permeability-increasing protein and uses thereof” (priority 1993, published 2004).

≈ marks a conversion by molar mass, not a printed value. Square brackets hold non-standard residues; d marks the D form. Ends that are not written are not given here. Peptide text beside a SMILES is read from it. Phe(4-NH2) = Nc1ccc(C[C@H](N)C(=O)O)cc1; 1Nal = N[C@@H](Cc1cccc2ccccc12)C(=O)O; Cha = N[C@@H](CC1CCCCC1)C(=O)O

The test system of test [1] is rough mutant E. coli J5 bacteria. The experiment in a line: Radial diffusion bactericidal assay, E. coli J5. In kind it is cell-based. The settings on record: radial diffusion; PROBIT analysis; E. coli J5 (rough). An outline of the steps: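 Wells received 5 or 10 μL of BPI fragment, pre-incubated 3 h at 37 °C. The underlayer agarose carried washed log-phase organisms at 4×10^6 CFU/mL.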

Test [2] relates to E. coli 0111:B4 (smooth) bacteria. As to the kind of experiment: Radial diffusion bactericidal assay, E. coli 0111:B4. In kind it is cell-based. The settings on record: radial diffusion; PROBIT analysis; E. coli O111:B4 (smooth).
Test [3] relates to C. albicans. As to the kind of experiment: Radial diffusion fungicidal assay, Candida albicans. In kind it is cell-based. The conditions noted are these: for C. albicans: pmol required for 30 mm^2 zone: radial diffusion.
The test system of test [4] is Staphylococcus aureus. The experiment in a line: Radial diffusion bactericidal assay, Staphylococcus aureus. The class given is cell-based. The settings on record: radial diffusion; PROBIT analysis; S. aureus.
Test [5] has as its system Candida albicans. The class given is cell-based.
Test [6] in a line: 3H-heparin binding assay (affinity and capacity). The settings on record: for Heparin Capacity: heparin bound at saturation; for Kd: read-out: Heparin Affinity. In a few lines: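 Peptide fragments were bound to PVDF-membrane wells and incubated with 3H-heparin in blocking buffer for 1 h at 4 °C. After washing, bound radioactivity was quantified by liquid scintillation counting, with BSA background subtracted; rBPI23 served as positive control.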

With `CC[C@H](C)[C@H](NC(=O)[C@H](CC(C)C)NC(=O)[C@H](Cc1ccc(N)cc1)NC(=O)CNC(=O)[C@@H](NC(=O)[C@H](CCCCN)NC(=O)[C@H](CO)NC(=O)[C@@H](N)CCCCN)C(C)C)C(=O)N[C@@H](CCC(N)=O)C(=O)N[C@@H](CC(C)C)C(=O)N[C@@H](Cc1ccccc1)C(=O)N[C@@H](Cc1c[nH]cn1)C(=O)N[C@@H](CCCCN)C(=O)N[C@@H](CCCCN)C(=O)O` [BPI.133] (H-KSKVG[Phe(4-NH2)]LIQLFHKK-OH; N-terminus and C-terminus assumed), in test [1], the “pmol added to well to achieve a 30 mm^2 bactericidal zone, E. coli J5” value (shortened to “pmol added to well … E. coli J5”) was 2,316.59 pmol. Further, in test [2], the “pmol added to well to achieve a 30 mm^2 bactericidal zone, E. coli O111:B4” value (from here on “pmol added to well … E. coli O111:B4”) was “b (no detectable activity up to 5 μg/well)”. Moreover, the “C. albicans: pmol required for 30 mm^2 zone” value (from here on “C. albicans: pmol required”) in test [3] worked out at 284.39 pmol. Further, the “pmol added to well to achieve a 30 mm^2 bactericidal zone, S. aureus” value (shortened to “pmol added to well … S. aureus”) in test [4] was “b (no detectable activity up to 5 μg/well)”. Besides, the “MIC C. alb” value in test [5] came out at 12.50 µg/mL (≈ 7.4 µM).

On to `CC[C@H](C)[C@H](NC(=O)[C@H](CC(C)C)NC(=O)[C@H](Cc1c[nH]c2ccccc12)NC(=O)[C@H](Cc1ccc(N)cc1)NC(=O)[C@@H](NC(=O)[C@H](CCCCN)NC(=O)[C@H](CO)NC(=O)[C@@H](N)CCCCN)C(C)C)C(=O)N[C@@H](CCC(N)=O)C(=O)N[C@@H](CC(C)C)C(=O)N[C@@H](Cc1ccccc1)C(=O)N[C@@H](Cc1c[nH]cn1)C(=O)N[C@@H](CCCCN)C(=O)N[C@@H](CCCCN)C(=O)O` [BPI.134] (H-KSKV[Phe(4-NH2)]WLIQLFHKK-OH; N-terminus and C-terminus assumed), for which the “pmol added to well … E. coli J5” value in test [1] is listed as 162.50 pmol. Further, in test [2], the “pmol added to well … E. coli O111:B4” value came to 580.11 pmol. Moreover, in test [3], the “C. albicans: pmol required” value came to 1254.98 pmol. Besides, the “pmol added to well … S. aureus” value in test [4] is reported as “b (no detectable activity up to 5 μg/well)”. Further, in test [5], the “MIC C. alb” value was determined as 12.50 µg/mL (≈ 6.88 µM).

Take `CC[C@H](C)[C@H](NC(=O)[C@H](CC(C)C)NC(=O)[C@H](Cc1c[nH]c2ccccc12)NC(=O)CNC(=O)[C@@H](NC(=O)[C@H](CCCCN)NC(=O)[C@H](CO)NC(=O)[C@@H](N)CCCCN)C(C)C)C(=O)N[C@@H](CCC(N)=O)C(=O)N[C@@H](Cc1cccc2ccccc12)C(=O)N[C@@H](Cc1ccccc1)C(=O)N[C@@H](Cc1c[nH]cn1)C(=O)N[C@@H](CCCCN)C(=O)N[C@@H](CCCCN)C(=O)O` [BPI.143] (H-KSKVGWLIQ[1Nal]FHKK-OH; N-terminus and C-terminus assumed): in test [1], the “pmol added to well … E. coli J5” value was 12,388.45 pmol. Also, the “pmol added to well … E. coli O111:B4” value in test [2] was “b (no detectable activity up to 5 μg/well)”. Besides, the “C. albicans: pmol required” value in test [3] was >2838.99 pmol. Besides, the “pmol added to well … S. aureus” value in test [4] is given as “b (no detectable activity up to 5 μg/well)”. In test [5], the “MIC C. alb” value stood at 25.00 µg/mL (≈ 13.9 µM).

For the molecule `CC[C@H](C)[C@H](NC(=O)[C@H](CC(C)C)NC(=O)[C@H](CC1CCCCC1)NC(=O)CNC(=O)[C@@H](NC(=O)[C@H](CCCCN)NC(=O)[C@H](CO)NC(=O)[C@@H](N)CCCCN)C(C)C)C(=O)N[C@@H](CCC(N)=O)C(=O)N[C@@H](CC(C)C)C(=O)N[C@@H](Cc1ccccc1)C(=O)N[C@@H](Cc1c[nH]cn1)C(=O)N[C@@H](CCCCN)C(=O)N[C@@H](CCCCN)C(=O)O` [BPI.144] (H-KSKVG[Cha]LIQLFHKK-OH; N-terminus and C-terminus assumed), the “pmol added to well … E. coli J5” value in test [1] is given as 510.02 pmol. Also, in test [2], the “pmol added to well … E. coli O111:B4” value is listed as “b (no detectable activity up to 5 μg/well)”. Also, in test [3], the “C. albicans: pmol required” value turned out to be 695.19 pmol. Further, the “pmol added to well … S. aureus” value in test [4] is “b (no detectable activity up to 5 μg/well)”. Moreover, the “MIC C. alb” value in test [5] is 12.50 µg/mL (≈ 7.44 µM).

For the molecule KSKVGVLIQLFHKK [BPI.166], the “pmol added to well … E. coli J5” value in test [1] came out at 514.00 pmol. The “pmol added to well … E. coli O111:B4” value in test [2] is reported as 9,586.00 pmol. The “C. albicans: pmol required” value in test [3] was 170.65 pmol. Further, in test [4], the “pmol added to well … S. aureus” value was “b (no detectable activity up to 5 μg/well)”. In test [5], the “MIC C. alb” value was determined as 3.13 µg/mL.

In the case of KSKVGWLIALFHKK [BPI.39], in test [6], the “Heparin Capacity” value was 335.6 ng and the Kd was 757 nM. In addition, the “pmol added to well … E. coli J5” value in test [1] came to 316.20 pmol. For the same molecule, the “pmol added to well … E. coli O111:B4” value in test [2] is on record as “b (no detectable activity up to 5 μg/well)”. Moreover, the “C. albicans: pmol required” value in test [3] is recorded as 1791.81 pmol. The “fold decrease in the radial diffusion assay test (fungicidal activity)” value in test [3] (vs BPI.13) is on record as “greater than 8 fold”. For the same molecule, the “MIC C. alb” value in test [5] is 12.50 µg/mL.

Take KSKVGWLIKLFHKK [BPI.92]: in test [6], the “Heparin Capacity” value turned out to be 227.3 ng and the Kd came out at 667 nM. In addition, the “pmol added to well … E. coli J5” value in test [1] was 331.80 pmol. In test [2], the “pmol added to well … E. coli O111:B4” value is on record as “b (no detectable activity up to 5 μg/well)”. Besides, the “C. albicans: pmol required” value in test [3] is on record as 298.72 pmol. The “pmol added to well … S. aureus” value in test [4] was “b (no detectable activity up to 5 μg/well)”. Also, the “MIC C. alb” value in test [5] came out at 3.13 µg/mL.

With KSKVGWLIQWFHKK [BPI.142], the “pmol added to well … E. coli J5” value in test [1] is 922.21 pmol. Also, the “pmol added to well … E. coli O111:B4” value in test [2] was “b (no detectable activity up to 5 μg/well)”. Further, in test [3], the “C. albicans: pmol required” value is recorded as 1243.79 pmol. The “pmol added to well … S. aureus” value in test [4] was “b (no detectable activity up to 5 μg/well)”. Moreover, the “MIC C. alb” value in test [5] came to 12.50 µg/mL.

KSKVGYLIQLFHKK [BPI.139]: the “pmol added to well … E. coli J5” value in test [1] is 1,261.37 pmol. In test [2], the “pmol added to well … E. coli O111:B4” value is recorded as 3,793.91 pmol. In test [3], the “C. albicans: pmol required” value amounted to 322.96 pmol. For the same molecule, the “pmol added to well … S. aureus” value in test [4] was “b (no detectable activity up to 5 μg/well)”. In addition, the “MIC C. alb” value in test [5] was found to be 6.25 µg/mL.

As for KSKVKFLIQLFHKK [BPI.138], the “pmol added to well … E. coli J5” value in test [1] came out at 64.57 pmol. In addition, the “pmol added to well … E. coli O111:B4” value in test [2] was determined as 995.40 pmol. In addition, the “C. albicans: pmol required” value in test [3] is 256.82 pmol. Further, the “pmol added to well … S. aureus” value in test [4] is reported as “b (no detectable activity up to 5 μg/well)”. Also, the “MIC C. alb” value in test [5] was 3.13 µg/mL.

In the case of KSKVLWLIQLFHKK [BPI.85], in test [6], the “Heparin Capacity” value stood at 233.1 ng and the Kd was 682 nM. Besides, in test [1], the “pmol added to well … E. coli J5” value is recorded as 227.35 pmol. Also, the “pmol added to well … E. coli O111:B4” value in test [2] is given as 295,208.43 pmol. Moreover, in test [3], the “C. albicans: pmol required” value is listed as >1881.18 pmol. Besides, the “pmol added to well … S. aureus” value in test [4] is on record as 14,677.13 pmol.

On to KWKVFKKIEKKSKVGWLIQLFHKK [BPI.149], for which, in test [1], the “pmol added to well … E. coli J5” value stood at 44.00 pmol. Besides, the “pmol added to well … E. coli O111:B4” value in test [2] is on record as 391.00 pmol. In test [3], the “C. albicans: pmol required” value is on record as >1397.76 pmol. In addition, in test [4], the “pmol added to well … S. aureus” value is given as “b (no detectable activity up to 5 μg/well)”. Besides, the “MIC C. alb” value in test [5] came out at 12.50 µg/mL.
